Experimental data reported in US8980906B2, “Pyridonemorphinan analogs and biological activity on opioid receptors” (Purdue Pharma L.P., priority 2012, dated 2015).

What was measured:
μ-opioid receptor [1] = target: T1, μ-opioid receptor (Homo sapiens (Human), UniProt P35372); assay: μ-opioid receptor [35S]GTPγS functional assay, HEK-293 or CHO cells; type: biochemical; details: for Emax: relative to DAMGO, HEK-293 or CHO cells
κ-opioid receptor [2] = target: T2, κ-opioid receptor (Homo sapiens (Human), UniProt P41145); assay: κ-opioid receptor [35S]GTPγS functional assay, HEK-293 or CHO cells; type: biochemical; details: for Emax: relative to U69,593, HEK-293 or CHO cells
Protocol: (§1) κ-Opioid Receptor Functional Assay Procedures: Functional [^35S]GTPγS binding assays were conducted as follows. κ opioid receptor membrane solution was prepared by sequentially adding final concentrations of 0.026 μg/μl κ membrane protein (in-house), 10 μg/mL saponin, 3 μM GDP and 0.20 nM [^35S]GTPγS to binding buffer (100 mM NaCl, 10 mM MgCl2, 20 mM HEPES, pH 7.4) on ice. The prepared membrane solution (190 μl/well) was transferred to 96-shallow well polypropylene plates containing 10 μl of 20× concentrated stock solutions of agonist prepared in DMSO. Plates were incubated for 30 min at a temperature of about 25° C. with shaking. Reactions were terminated by rapid filtration onto 96-well Unifilter GF/B filter plates (Perkin Elmer, Shelton, Conn.) using a 96-well tissue harvester (Packard) and followed by three filtration washes with 200 μl ice-cold binding buffer (10 mM NaH2PO4, 10 mM Na2HPO4, pH 7.4). Filter plates were subsequently dried at 50° C. for 2-3 hours. Fifty μl/well scintillation cocktail (Perkin Elmer, Shelton, Conn.) was added and plates were counted in a Packard Top-Count for 1 min/well.
(§2) κ-Opioid Receptor Functional Data: κ GTP EC50 is the concentration of a compound providing 50% of the maximal response for the compound at a κ receptor.
(§3) κ GTP Emax (%) is the maximal effect elicited by a compound relative to the effect elicited by U69,593.
In TABLE 2, activity response of certain Compounds of the Invention to the μ-, δ- and κ-opioid receptors was determined as described above for functional assays using HEK-293 or CHO cells.

μ-opioid receptor [3] = target: T1, μ-opioid receptor; assay: μ-opioid receptor radioligand dose-displacement binding assay ([3H]-diprenorphine); details: binding affinity, [3H]-diprenorphine displacement; read-out: Ki (nM) Opioid Receptor μ
Protocol: μ-Opioid Receptor Binding Assay Procedures: Radioligand dose-displacement binding assays for μ-opioid receptors used 0.3 nM [^3H]-diprenorphine (Perkin Elmer, Shelton, Conn.), with […] membrane protein/well in a final volume of 500 μl binding buffer (10 mM MgCl2, 1 mM EDTA, 5% DMSO, 50 mM HEPES, pH 7.4). Reactions were carried out in the absence or presence of increasing concentrations of unlabeled naloxone. All reactions were conducted in 96-deep well polypropylene plates for 2 hours at room temperature. Binding reactions were terminated by rapid filtration onto 96-well Unifilter GF/C filter plates (Perkin Elmer, Shelton, Conn.), presoaked in 0.5% polyethylenimine using a 96-well tissue harvester (Perkin Elmer, Shelton, Conn.) followed by performing three filtration washes with 500 μl of ice-cold binding buffer. Filter plates were subsequently dried at 50° C. for 2-3 hours. BetaScint scintillation cocktail (Perkin Elmer, Shelton, Conn.) was added (50 μl/well), and plates were counted using a Packard Top-Count for 1 min/well. The data were analyzed using the one-site competition curve fitting functions in GraphPad PRISM™ v. 3.0 or higher (San Diego, Calif.), or an in-house function for one-site competition curve-fitting.

κ-opioid receptor [4] = target: T2, κ-opioid receptor; assay: κ-opioid receptor radioligand dose-displacement binding assay ([3H]-U69,593); details: binding affinity, [3H]-U69,593 displacement
Protocol: κ-Opioid Receptor Binding Assay Procedures: Membranes from HEK-293 cells, CHO or U-2 OS cells expressing the recombinant human kappa opioid receptor (κ) were prepared by lysing cells in ice cold hypotonic buffer (2.5 mM MgCl2, 50 mM HEPES, pH 7.4) (10 mL/10 cm dish) followed by homogenization with a tissue grinder/Teflon pestle. Membranes were collected by centrifugation at 30,000×g for 15 min at 4° C. and pellets were resuspended in hypotonic buffer to a final concentration of 1-3 mg/mL. Protein concentrations were determined using the BioRad protein assay reagent with bovine serum albumen as standard, Aliquots of κ receptor membranes were stored at […].
Radioligand dose displacement assays used 0.4 nM [^3H]-U69,593 (GE Healthcare, Piscataway, N.J.; 40 Ci/mmole) with 15 μg membrane protein (recombinant κ opioid receptor expressed in HEK 293 cells; in-house prep) in a final volume of 200 μl binding buffer (5% DMSO, 50 mM Trizma base, pH 7.4). Non-specific binding was determined in the presence of 10 μM unlabeled naloxone or U69,593. All reactions were performed in 96-well polypropylene plates for 1 hour at a temperature of about 25° C. Binding reactions were terminated by rapid filtration onto 96-well Unifilter GF/C filter plates (Perkin Elmer, Shelton, Conn.) presoaked in 0.5% polyethylenimine (Sigma). Harvesting was performed using a 96-well tissue harvester (Perkin Elmer, Shelton, Conn.) followed by five filtration washes with 200 μl ice-cold binding buffer. Filter plates were subsequently dried at 50° C. for 1-2 hours. Fifty μl/well scintillation cocktail (Perkin Elmer, Shelton, Conn.) was added and plates were counted in a Packard Top-Count for 1 min/well.

κ-opioid receptor [5] = target: T2, κ-opioid receptor; assay: κ-opioid receptor [35S]GTPγS functional assay, U-2 OS cells; type: biochemical
Protocol: as §1, §2, §3
(§4) The following TABLE 3 provides results on the activity response of certain Compounds of the Invention at the μ- and κ-opioid receptors determined as described above using U-2 OS cells.

μ-opioid receptor [6] = target: T1, μ-opioid receptor; assay: μ-opioid receptor [35S]GTPγS functional assay, U-2 OS cells; type: biochemical
Protocol: μ-Opioid Receptor Functional Assay Procedures: [^35S]GTPγS functional assays were conducted using freshly thawed μ-receptor membranes prepared in-house from a cell line expressing recombinant μ opioid receptor in a HEK-293, CHO or U-2 OS cell background, or purchased from a commercial source (Perkin Elmer, Shelton, Conn.; or DiscovRx, Fremont, Calif.). Assay reactions were prepared by sequentially adding the following reagents to binding buffer (100 mM NaCl, 10 mM MgCl2, 20 mM HEPES, pH 7.4) on ice (final concentrations indicated): membrane protein (0.026 mg/mL), saponin ([…]), GDP ([…]) and [^35S]GTPγS (0.20 nM; Perkin Elmer, Shelton, Conn.). The prepared membrane solution (190 μl/well) was transferred to 96-shallow well polypropylene plates containing 10 μl of 20× concentrated stock solutions of the agonist [D-Ala^2, N-methyl-Phe^4 Gly-ol^5]-enkephalin (DAMGO) prepared in dimethyl sulfoxide (DMSO). Plates were incubated for 30 min at about 25° C. with shaking. Reactions were terminated by rapid filtration onto 96-well Unifilter GF/B filter plates (Perkin Elmer, Shelton, Conn.) using a 96-well tissue harvester (Perkin Elmer, Shelton, Conn.) followed by three filtration washes with 200 μl of ice-cold wash buffer (10 mM NaH2PO4, 10 mM Na2HPO4, pH 7.4). Filter plates were subsequently dried at 50° C. for 2-3 hours. BetaScint scintillation cocktail (Perkin Elmer, Shelton, Conn.) was added (50 μl/well) and plates were counted using a Packard Top-Count for 1 min/well. Data were analyzed using the sigmoidal dose-response curve fitting functions in GraphPad PRISM v. 3.0, or an in-house function for non-linear, sigmoidal dose-response curve-fitting.
μ-Opioid Receptor Functional Data: μ GTP EC50 is the concentration of a compound providing 50% of the maximal response for the compound at a μ-opioid receptor.
μ GTP Emax (%) is the maximal effect elicited by a compound relative to the effect elicited by DAMGO, a standard μ agonist. Generally, the μ GTP Emax (%) value measures the efficacy of a compound to treat or prevent pain or other Conditions.
as §4

Structure (SMILES)	EC50 (μ-opioid receptor [1])	EC50 (κ-opioid receptor [2])	Emax (κ-opioid receptor [2])	Ki (μ-opioid receptor [3])	Ki (κ-opioid receptor [4])	Emax (μ-opioid receptor [1])	EC50 (κ-opioid receptor [5])	Emax (κ-opioid receptor [5]; relative to U69,593, U-2 OS cells)	EC50 (μ-opioid receptor [6])	Emax (μ-opioid receptor [6]; relative to DAMGO, U-2 OS cells)
NC(=O)c1cc2c([nH]c1=O)C[C@]13CCN(CC4CC4)[C@H](Cc4ccc(O)cc41)[C@@H]3C2 [Compound 7, (6R,6aR,12aS)-15-(cyclopropylmethyl)-2-hydroxy-10-oxo-6,6a,7,10,11,12-hexahydro-5H-6,12a-(epiminoethano)naphtho[2,1-g]quinoline-9-carboxamide]	> 20000 nM	33.9 ± 3.73 nM	31.3 ± 3.18%	4.55 ± 1.26 nM	0.19 ± 0.04 nM	–	–	–	–	–
NC(=O)[C@H](Cc1ccccc1)NC(=O)c1cc2c([nH]c1=O)C[C@]13CCN(CC4CC4)[C@H](Cc4ccc(O)cc41)[C@@H]3C2 [Compound 23, (6R,6aR,12aS)—N—((S)-1-amino-1-oxo-3-phenylpropan-2-yl)-15-(cyclopropylmethyl)-2-hydroxy-10-oxo-6,6a,7,10,11,12-hexahydro-5H-6,12a-(epiminoethano)naphtho[2,1-g]quinoline-9-carboxamide]	3.19 ± 0.46 nM	8.35 ± 2.25 nM	25.7 ± 4.18%	1.86 ± 0.65 nM	0.31 ± 0.05 nM	41.3 ± 5.04%	–	–	–	–
CC(C)C[C@H](NC(=O)c1cc2c([nH]c1=O)C[C@]13CCN(CC4CC4)[C@H](Cc4ccc(O)cc41)[C@@H]3C2)C(N)=O [Compound 24, (6R,6aR,12aS)—N—((S)-1-amino-4-methyl-1-oxopentan-2-yl)-15-(cyclopropylmethyl)-2-hydroxy-10-oxo-6,6a,7,10,11,12-hexahydro-5H-6,12a-(epiminoethano)naphtho[2,1-g]quinoline-9-carboxamide]	5.2 ± 1.35 nM	2.54 ± 0.55 nM	23 ± 2.04%	3.95 ± 1.84 nM	0.96 ± 0.1 nM	37 ± 7.02%	–	–	–	–
NC(=O)[C@@H]1CCCN1C(=O)c1cc2c([nH]c1=O)C[C@]13CCN(CC4CC4)[C@H](Cc4ccc(O)cc41)[C@@H]3C2 [Compound 25, (S)-1-((6R,6aR,12aS)-15-(cyclopropylmethyl)-2-hydroxy-10-oxo-6,6a,7,10,11,12-hexahydro-5H-6,12a-(epiminoethano)naphtho[2,1-g]quinoline-9-carbonyl)pyrrolidine-2-carboxamide]	4.87 ± 0.52 nM	4.42 ± 0.85 nM	44.7 ± 2.73%	0.41 ± 0.05 nM	0.32 ± 0.06 nM	29.3 ± 1.45%	–	–	–	–
NC(=O)C[C@H](NC(=O)c1cc2c([nH]c1=O)C[C@]13CCN(CC4CC4)[C@H](Cc4ccc(O)cc41)[C@@H]3C2)C(N)=O [Compound 26]	7.54 ± 1.97 nM	8.87 ± 1.35 nM	39 ± 2.08%	0.71 ± 0.11 nM	0.86 ± 0.23 nM	38 ± 1.15%	–	–	–	–
COC(=O)c1cc2c([nH]c1=O)C[C@]13CCN(Cc4ccccc4)[C@H](Cc4ccc(OC)cc41)[C@]3(O)C2 [Compound 30, (6R,6aS,12aR)-methyl 15-benzyl-6a-hydroxy-2-methoxy-10-oxo-6,6a,7,10,11,12-hexahydro-5H-6,12a-(epiminoethano)naphtho[2,1-g]quinoline-9-carboxylate]	–	–	–	3940 ± 860 nM	599 ± 90 nM	–	> 20 µM	1%	–	–
COc1ccc2c(c1)[C@]13CCN(Cc4ccccc4)[C@H](C2)[C@]1(O)Cc1cc(C(N)=O)c(=O)[nH]c1C3 [Compound 31, (6R,6aS,12aR)-15-benzyl-6a-hydroxy-2-methoxy-10-oxo-6,6a,7,10,11,12-hexahydro-5H-6,12a-(epiminoethano)naphtho[2,1-g]quinoline-9-carboxamide]	–	–	–	5590 ± 696 nM	1580 ± 308 nM	–	–	–	> 20 µM	10.7 ± 5.21%
